Laboratory results from US10059717B2, “Urea compounds containing 3,4-dihydropyrimido[4,5-D]pyrimidin-2(1H)-one skeleton as protein kinase inhibitors” (KOREA INSTITUTE OF SCIENCE AND TECHNOLOGY, priority 2016, dated 2018).

Tests used:
Assay in all cases: Kinase panel biochemical assay
Settings in all cases: 1 μM single concentration, read-out: % residual enzyme activity
ABL1 = ABL1 (Homo sapiens, UniProt P00519)
Method: (§1) In order to measure the protein kinase inhibitory activity (% inhibition) of the compounds of the present invention, biochemical assays were performed on the full kinase panel listed in the following Table 1.
(§2) As an test compound, 1-(3-(7-((6-(4-ethylpiperazine-1-carbonyl)pyridin-3-yl)amino)-1-methyl-2-oxo-1,4-dihydropyrimido[4,5-d]pyrimidin-3(2H)-yl)-4-methylphenyl)-3-(2-methoxyphenyl)urea (Compound No. 14) was used. The kinase inhibitory efficacy was measured upon treatment with a 1 μM single concentration of the test compound to calculate % residual enzyme activity value.
(§3) ABL1, FGFR2, TAOK2/TAO1, EPHA5, EPHB2, EPHB3, RET, LYN B, EPHA2, FRK/PTK5, EPHA8, LCK, EPHB4, FYN, KHS/MAP4K5, DDR1, EPHA3, P38a/MAPK14, EPHA4, FMS, EPHB1, HCK, FGFR1, ABL2/ARG, EPHA6, c-Src, ACK1, FLT4NEGFR3, ERBB4/HER4, DDR2, KDRNEGFR2, LYN, ZAK/MLTK, YES/YES1, BLK, FGR, MLCK2/MYLK2, TAOK1, BMX/ETK, BTK, EPHA1, JAK1, P38b/MAPK11, TIE2/TEK, FLT1NEGFR1, TXK, SRMS, RAF1, SIK1, MLK3/MAP3K11, PEAK1, TRKA, EPHA7, GLK/MAP4K3, MLK2/MAP3K10, TEC, CSK, TRKC, FES/FPS, SIK2, FGFR3, BRK, YSK4/MAP3K19, ARAF, PDGFRb, TNK1, GCK/MAP4K2, PDGFRa, TNIK, TAK1, ERBB2/HER2, LIMK1, HIPK4, FER, EGFR, JAK2, HPK1/MAP4K1, TRKB, RIPK3, LOK/STK10, LIMK2, MLK1/MAP3K9, BRAF, MEKK3, MEK5, STK32B/YANK2, FGFR4, MEKK2, SLK/STK2, FLT3, PKAcg, TAOK3/JIK, TYRO3/SKY, SIK3, IR, LRRK2, PYK2, NEK11, p70S6K/RPS6KB1, LATS2.

BTK = BTK (Homo sapiens, UniProt Q06187)
Method: as §1, §2, §3

CSK = CSK (Homo sapiens, UniProt P41240)
Method: as §1, §2, §3

DDR2 = DDR2 (Homo sapiens, UniProt Q16832)
Method: as §1, §2, §3

EPHA1 = EPHA1 (Homo sapiens, UniProt P21709)
Method: as §1, §2, §3

EPHA2 = EPHA2 (Homo sapiens, UniProt P29317)
Method: as §1, §2, §3

EPHA3 = EPHA3 (Homo sapiens, UniProt P29320)
Method: as §1, §2, §3

EPHA4 = EPHA4 (Homo sapiens, UniProt P54764)
Method: as §1, §2, §3

EPHA7 = EPHA7 (Homo sapiens, UniProt Q15375)
Method: as §1, §2, §3

EPHB1 = EPHB1 (Homo sapiens, UniProt P54762)
Method: as §1, §2, §3

EPHB2 = EPHB2 (Homo sapiens, UniProt P29323)
Method: as §1, §2, §3

FGFR3 = FGFR3 (Homo sapiens, UniProt P22607)
Method: as §1, §2, §3

FGR = FGR (Homo sapiens, UniProt P09769)
Method: as §1, §2, §3

FLT1NEGFR1 = FLT1NEGFR1 (Homo sapiens, UniProt P17948)
Method: as §1, §2, §3

FLT4NEGFR3 = FLT4NEGFR3 (Homo sapiens, UniProt P35916)
Method: as §1, §2, §3

FMS = FMS (Homo sapiens, UniProt P07333)
Method: as §1, §2, §3

GCK/MAP4K2 = GCK/MAP4K2 (Homo sapiens, UniProt Q12851)
Method: as §1, §2, §3

IR = IR (Homo sapiens, UniProt P06213)
Method: as §1, §2, §3

LCK = LCK (Homo sapiens, UniProt P06239)
Method: as §1, §2, §3

MEKK2 = MEKK2 (Homo sapiens, UniProt Q9Y2U5)
Method: as §1, §2, §3

NEK11 = NEK11 (Homo sapiens, UniProt Q8NG66)
Method: as §1, §2, §3

PDGFRb = PDGFRb (Homo sapiens, UniProt P09619)
Method: as §1, §2, §3

PEAK1 = PEAK1 (Homo sapiens, UniProt Q9H792)
Method: as §1, §2, §3

SIK1 = SIK1 (Homo sapiens, UniProt P57059)
Method: as §1, §2, §3

TAOK2/TAO1 = TAOK2/TAO1 (Homo sapiens, UniProt Q9UL54)
Method: as §1, §2, §3

TEC = TEC (Homo sapiens, UniProt P42680)
Method: as §1, §2, §3

TRKB = TRKB (Homo sapiens, UniProt Q16620)
Method: as §1, §2, §3

TRKC = TRKC (Homo sapiens, UniProt Q16288)
Method: as §1, §2, §3

TXK = TXK (Homo sapiens, UniProt P42681)
Method: as §1, §2, §3

YES/YES1 = YES/YES1 (Homo sapiens, UniProt P07947)
Method: as §1, §2, §3

YSK4/MAP3K19 = YSK4/MAP3K19 (Homo sapiens, UniProt Q56UN5)
Method: as §1, §2, §3

Chain of FLT1NEGFR1 (P17948 27-1338): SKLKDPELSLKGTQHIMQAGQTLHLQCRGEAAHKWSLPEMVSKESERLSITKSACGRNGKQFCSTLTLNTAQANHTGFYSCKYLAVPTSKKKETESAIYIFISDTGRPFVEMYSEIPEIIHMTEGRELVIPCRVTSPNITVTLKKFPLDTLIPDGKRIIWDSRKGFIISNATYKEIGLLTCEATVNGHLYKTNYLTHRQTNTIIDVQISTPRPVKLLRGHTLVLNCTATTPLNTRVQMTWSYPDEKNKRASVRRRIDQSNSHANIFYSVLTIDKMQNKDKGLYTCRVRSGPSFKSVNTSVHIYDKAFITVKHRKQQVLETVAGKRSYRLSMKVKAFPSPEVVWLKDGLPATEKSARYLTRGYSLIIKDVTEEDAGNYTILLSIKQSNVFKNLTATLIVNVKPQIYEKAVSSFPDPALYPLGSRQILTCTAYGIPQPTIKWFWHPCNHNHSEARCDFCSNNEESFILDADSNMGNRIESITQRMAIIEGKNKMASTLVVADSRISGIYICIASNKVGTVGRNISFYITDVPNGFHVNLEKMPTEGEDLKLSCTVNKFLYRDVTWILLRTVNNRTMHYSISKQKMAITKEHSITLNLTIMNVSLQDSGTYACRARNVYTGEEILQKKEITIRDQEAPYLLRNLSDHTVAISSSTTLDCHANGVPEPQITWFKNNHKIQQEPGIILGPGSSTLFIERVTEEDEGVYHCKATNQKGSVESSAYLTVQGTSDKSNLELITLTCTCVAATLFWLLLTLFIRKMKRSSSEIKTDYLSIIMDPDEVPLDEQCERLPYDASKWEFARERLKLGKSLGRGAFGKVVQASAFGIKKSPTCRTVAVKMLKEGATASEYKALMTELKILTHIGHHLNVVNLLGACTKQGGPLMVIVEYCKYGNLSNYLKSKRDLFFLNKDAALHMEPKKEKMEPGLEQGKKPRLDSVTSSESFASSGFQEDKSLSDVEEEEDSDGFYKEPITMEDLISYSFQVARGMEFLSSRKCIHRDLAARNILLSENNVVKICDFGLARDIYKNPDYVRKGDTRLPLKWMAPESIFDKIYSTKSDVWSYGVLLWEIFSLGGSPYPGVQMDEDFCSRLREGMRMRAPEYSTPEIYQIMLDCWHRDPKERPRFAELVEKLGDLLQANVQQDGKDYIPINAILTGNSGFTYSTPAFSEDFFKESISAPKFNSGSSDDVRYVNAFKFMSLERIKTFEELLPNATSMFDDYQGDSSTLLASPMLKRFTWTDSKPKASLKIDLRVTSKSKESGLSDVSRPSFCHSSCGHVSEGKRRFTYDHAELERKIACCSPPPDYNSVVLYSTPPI
Chain of ABL1 (P00519 whole entry): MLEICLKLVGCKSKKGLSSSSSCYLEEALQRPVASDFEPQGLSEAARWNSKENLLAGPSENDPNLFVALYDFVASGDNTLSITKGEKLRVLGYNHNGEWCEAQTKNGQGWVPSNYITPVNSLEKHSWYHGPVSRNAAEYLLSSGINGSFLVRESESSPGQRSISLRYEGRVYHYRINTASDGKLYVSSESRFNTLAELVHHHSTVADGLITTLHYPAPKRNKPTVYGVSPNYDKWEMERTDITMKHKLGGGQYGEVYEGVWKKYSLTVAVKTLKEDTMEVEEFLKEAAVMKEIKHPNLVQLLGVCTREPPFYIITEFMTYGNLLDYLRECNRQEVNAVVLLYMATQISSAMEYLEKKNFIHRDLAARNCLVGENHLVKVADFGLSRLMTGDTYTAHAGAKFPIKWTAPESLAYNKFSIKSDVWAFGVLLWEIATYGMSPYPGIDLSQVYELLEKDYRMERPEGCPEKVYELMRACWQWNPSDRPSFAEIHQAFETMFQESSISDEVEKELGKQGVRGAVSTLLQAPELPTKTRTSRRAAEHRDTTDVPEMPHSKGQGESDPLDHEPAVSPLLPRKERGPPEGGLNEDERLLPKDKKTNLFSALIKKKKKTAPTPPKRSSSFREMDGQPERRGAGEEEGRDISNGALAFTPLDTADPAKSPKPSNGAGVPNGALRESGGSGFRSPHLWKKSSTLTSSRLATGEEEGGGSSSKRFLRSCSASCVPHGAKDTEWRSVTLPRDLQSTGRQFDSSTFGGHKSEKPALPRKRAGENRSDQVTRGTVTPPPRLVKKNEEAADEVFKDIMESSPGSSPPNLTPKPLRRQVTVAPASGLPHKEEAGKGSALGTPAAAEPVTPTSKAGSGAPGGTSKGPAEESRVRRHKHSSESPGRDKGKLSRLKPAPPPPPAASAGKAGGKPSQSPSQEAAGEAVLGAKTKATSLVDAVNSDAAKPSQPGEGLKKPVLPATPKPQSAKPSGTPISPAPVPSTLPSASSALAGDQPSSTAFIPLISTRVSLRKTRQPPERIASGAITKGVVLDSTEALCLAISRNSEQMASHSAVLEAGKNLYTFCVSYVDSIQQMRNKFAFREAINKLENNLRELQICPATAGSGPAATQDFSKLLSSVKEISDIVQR
Chain of BTK (Q06187 whole entry): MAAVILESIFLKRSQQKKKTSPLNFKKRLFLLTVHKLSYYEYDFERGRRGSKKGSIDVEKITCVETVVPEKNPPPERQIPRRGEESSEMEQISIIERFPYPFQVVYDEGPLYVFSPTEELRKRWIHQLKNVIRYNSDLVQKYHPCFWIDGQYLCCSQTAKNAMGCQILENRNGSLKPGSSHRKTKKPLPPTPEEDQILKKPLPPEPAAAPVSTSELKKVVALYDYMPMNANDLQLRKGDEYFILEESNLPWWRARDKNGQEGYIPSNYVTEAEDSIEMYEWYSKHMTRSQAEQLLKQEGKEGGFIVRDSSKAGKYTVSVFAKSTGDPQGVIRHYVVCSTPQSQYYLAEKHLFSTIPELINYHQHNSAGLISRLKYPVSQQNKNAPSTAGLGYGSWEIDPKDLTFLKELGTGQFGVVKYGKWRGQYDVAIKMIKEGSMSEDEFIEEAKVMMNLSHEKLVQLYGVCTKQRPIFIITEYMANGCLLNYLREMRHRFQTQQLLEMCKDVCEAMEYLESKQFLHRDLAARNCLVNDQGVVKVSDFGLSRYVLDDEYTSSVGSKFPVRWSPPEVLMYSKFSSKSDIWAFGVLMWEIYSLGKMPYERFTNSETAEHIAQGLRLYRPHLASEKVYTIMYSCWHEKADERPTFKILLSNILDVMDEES
Chain of IR (P06213 28-1382): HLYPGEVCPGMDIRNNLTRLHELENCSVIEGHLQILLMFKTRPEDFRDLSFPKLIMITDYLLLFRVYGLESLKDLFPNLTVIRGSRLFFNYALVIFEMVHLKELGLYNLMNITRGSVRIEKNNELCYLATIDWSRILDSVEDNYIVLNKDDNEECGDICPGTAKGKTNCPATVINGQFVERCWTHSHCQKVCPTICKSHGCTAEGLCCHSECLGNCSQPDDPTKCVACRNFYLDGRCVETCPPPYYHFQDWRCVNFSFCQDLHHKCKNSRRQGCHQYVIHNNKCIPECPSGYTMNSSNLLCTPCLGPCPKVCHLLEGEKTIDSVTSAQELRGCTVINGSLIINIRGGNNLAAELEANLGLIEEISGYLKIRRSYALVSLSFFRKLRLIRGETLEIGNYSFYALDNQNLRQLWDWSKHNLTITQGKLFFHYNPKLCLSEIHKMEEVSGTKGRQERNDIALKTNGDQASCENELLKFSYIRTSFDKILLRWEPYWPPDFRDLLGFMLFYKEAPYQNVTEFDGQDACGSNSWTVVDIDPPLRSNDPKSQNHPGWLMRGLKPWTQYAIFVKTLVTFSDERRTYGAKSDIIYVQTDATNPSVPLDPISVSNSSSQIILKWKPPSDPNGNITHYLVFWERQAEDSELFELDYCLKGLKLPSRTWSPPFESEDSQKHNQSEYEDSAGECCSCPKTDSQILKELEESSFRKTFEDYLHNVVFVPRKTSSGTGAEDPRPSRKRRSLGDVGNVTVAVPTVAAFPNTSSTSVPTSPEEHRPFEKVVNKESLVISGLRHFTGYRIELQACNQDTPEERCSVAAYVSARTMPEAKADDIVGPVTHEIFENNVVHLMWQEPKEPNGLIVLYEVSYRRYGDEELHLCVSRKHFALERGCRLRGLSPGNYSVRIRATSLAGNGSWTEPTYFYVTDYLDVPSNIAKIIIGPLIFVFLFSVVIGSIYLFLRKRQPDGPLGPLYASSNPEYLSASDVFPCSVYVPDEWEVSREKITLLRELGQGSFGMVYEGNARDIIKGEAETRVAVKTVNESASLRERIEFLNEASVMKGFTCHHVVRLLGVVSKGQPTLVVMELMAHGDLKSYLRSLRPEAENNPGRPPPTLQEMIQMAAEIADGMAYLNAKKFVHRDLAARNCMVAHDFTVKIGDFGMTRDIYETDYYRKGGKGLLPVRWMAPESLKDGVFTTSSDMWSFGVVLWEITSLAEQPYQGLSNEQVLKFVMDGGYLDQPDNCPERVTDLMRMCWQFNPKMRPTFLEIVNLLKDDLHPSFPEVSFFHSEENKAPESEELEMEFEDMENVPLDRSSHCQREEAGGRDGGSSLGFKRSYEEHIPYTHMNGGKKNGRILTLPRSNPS
Chain of LCK (P06239 whole entry): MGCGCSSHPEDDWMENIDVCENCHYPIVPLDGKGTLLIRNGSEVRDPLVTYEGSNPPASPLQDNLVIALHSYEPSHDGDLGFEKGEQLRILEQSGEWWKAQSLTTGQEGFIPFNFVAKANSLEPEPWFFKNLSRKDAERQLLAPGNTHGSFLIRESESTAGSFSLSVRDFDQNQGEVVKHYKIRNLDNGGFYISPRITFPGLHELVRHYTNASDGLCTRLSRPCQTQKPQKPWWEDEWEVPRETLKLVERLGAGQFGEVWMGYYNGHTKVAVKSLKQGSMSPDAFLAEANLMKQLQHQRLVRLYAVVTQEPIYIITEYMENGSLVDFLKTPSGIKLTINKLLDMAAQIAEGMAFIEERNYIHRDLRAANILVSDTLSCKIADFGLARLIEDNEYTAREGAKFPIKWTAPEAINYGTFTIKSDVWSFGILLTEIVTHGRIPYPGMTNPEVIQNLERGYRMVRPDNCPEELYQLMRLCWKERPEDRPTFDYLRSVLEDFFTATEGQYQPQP

remaining activity at 1 µM (ABL1): ≤ 30%
remaining activity at 1 µM (BTK): ≤ 30%
remaining activity at 1 µM (CSK): ≤ 30%
remaining activity at 1 µM (DDR2): ≤ 30%
remaining activity at 1 µM (EPHA1): ≤ 30%
remaining activity at 1 µM (EPHA2): ≤ 30%
remaining activity at 1 µM (EPHA3): ≤ 30%
remaining activity at 1 µM (EPHA4): ≤ 30%
remaining activity at 1 µM (EPHA7): ≤ 30%
remaining activity at 1 µM (EPHB1): ≤ 30%
remaining activity at 1 µM (EPHB2): ≤ 30%
remaining activity at 1 µM (FGFR3): ≤ 30%
remaining activity at 1 µM (FGR): ≤ 30%
remaining activity at 1 µM (FLT1NEGFR1): ≤ 30%
remaining activity at 1 µM (FLT4NEGFR3): ≤ 30%
remaining activity at 1 µM (FMS): ≤ 30%
remaining activity at 1 µM (GCK/MAP4K2): ≤ 30%
remaining activity at 1 µM (IR): ≤ 30%
remaining activity at 1 µM (LCK): ≤ 30%
remaining activity at 1 µM (MEKK2): ≤ 30%
remaining activity at 1 µM (NEK11): ≤ 30%
remaining activity at 1 µM (PDGFRb): ≤ 30%
remaining activity at 1 µM (PEAK1): ≤ 30%
remaining activity at 1 µM (SIK1): ≤ 30%
remaining activity at 1 µM (TAOK2/TAO1): ≤ 30%
remaining activity at 1 µM (TEC): ≤ 30%
remaining activity at 1 µM (TRKB): ≤ 30%
remaining activity at 1 µM (TRKC): ≤ 30%
remaining activity at 1 µM (TXK): ≤ 30%
remaining activity at 1 µM (YES/YES1): ≤ 30%
remaining activity at 1 µM (YSK4/MAP3K19): ≤ 30%
SMILES: CCN1CCN(C(=O)c2ccc(Nc3ncc4c(n3)N(C)C(=O)N(c3cc(NC(=O)Nc5ccccc5OC)ccc3C)C4)cn2)CC1 [Compound No. 14, 1-(3-(7-((6-(4-ethylpiperazin-1-carbonyl)pyridin-3-yl)amino)-1-methyl-2-oxo-1,4-dihydropyrimido[4,5-d]pyrimidin-3(2H)-yl)-4-methylphenyl)-3-(2-methoxyphenyl)urea]
